Assays:
[1] = molecular target: Histamine H1 receptor (Homo sapiens, UniProt P35367); test: Inhibition of histamine H1 receptor (unknown origin) at 10 uM by PDSP assay relative to control
[2] = molecular target: T1, Alpha-1B adrenergic receptor (Homo sapiens) (UniProt P35368); test: Inhibition of adrenergic alpha1B receptor (unknown origin) at 10 uM by PDSP assay relative to control
T1 sequence (whole entry): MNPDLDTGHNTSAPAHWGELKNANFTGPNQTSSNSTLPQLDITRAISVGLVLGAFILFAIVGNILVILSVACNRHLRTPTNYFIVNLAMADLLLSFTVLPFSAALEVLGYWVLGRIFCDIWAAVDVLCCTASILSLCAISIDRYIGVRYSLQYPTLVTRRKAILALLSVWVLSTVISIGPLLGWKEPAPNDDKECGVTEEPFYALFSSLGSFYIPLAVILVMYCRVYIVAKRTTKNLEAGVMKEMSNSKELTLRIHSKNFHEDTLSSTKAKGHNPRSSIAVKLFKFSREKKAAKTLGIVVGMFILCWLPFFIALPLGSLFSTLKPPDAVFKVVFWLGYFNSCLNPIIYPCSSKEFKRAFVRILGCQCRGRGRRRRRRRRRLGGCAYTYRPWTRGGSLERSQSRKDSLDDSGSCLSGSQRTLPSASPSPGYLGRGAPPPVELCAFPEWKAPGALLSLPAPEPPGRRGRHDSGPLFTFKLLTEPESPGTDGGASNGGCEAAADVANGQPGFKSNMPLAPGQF

[3] = molecular target: T2, Muscarinic acetylcholine receptor M4 (Homo sapiens, UniProt P08173); test: Inhibition of muscarinic M4 receptor (unknown origin) by PDSP assay
T2 sequence (P08173 whole entry): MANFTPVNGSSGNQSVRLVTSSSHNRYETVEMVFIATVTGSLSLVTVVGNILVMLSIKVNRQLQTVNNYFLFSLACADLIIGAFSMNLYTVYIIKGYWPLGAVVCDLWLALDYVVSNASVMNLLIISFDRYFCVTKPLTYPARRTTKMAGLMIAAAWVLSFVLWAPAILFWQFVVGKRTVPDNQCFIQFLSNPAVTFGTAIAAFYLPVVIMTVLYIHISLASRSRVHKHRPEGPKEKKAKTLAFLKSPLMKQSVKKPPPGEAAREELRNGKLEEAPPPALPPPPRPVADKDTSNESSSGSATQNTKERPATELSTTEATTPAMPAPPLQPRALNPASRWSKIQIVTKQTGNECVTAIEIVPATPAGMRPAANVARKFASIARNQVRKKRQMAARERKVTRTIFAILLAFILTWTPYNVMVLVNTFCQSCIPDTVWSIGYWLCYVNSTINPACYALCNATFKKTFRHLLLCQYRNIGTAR

[4] = molecular target: Kappa-type opioid receptor (Homo sapiens, UniProt P41145); test: Inhibition of kappa opioid receptor (unknown origin) at 10 uM by PDSP assay relative to control
[5] = molecular target: T3, Muscarinic acetylcholine receptor M1 (Homo sapiens) (UniProt P11229); test: Inhibition of muscarinic M1 receptor (unknown origin) at 10 uM by PDSP assay relative to control
T3 sequence (whole entry): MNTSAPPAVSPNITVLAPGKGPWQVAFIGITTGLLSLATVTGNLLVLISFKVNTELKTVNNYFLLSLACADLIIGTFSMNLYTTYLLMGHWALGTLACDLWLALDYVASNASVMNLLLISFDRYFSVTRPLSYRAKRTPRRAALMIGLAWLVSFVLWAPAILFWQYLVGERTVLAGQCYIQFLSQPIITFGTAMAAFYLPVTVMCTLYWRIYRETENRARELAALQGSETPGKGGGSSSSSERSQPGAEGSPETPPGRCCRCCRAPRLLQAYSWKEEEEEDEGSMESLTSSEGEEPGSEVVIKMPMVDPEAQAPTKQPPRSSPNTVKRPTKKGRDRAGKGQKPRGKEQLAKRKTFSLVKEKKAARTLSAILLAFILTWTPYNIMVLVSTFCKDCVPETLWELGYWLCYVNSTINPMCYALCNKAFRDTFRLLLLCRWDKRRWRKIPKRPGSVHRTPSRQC

[6] = molecular target: 5-hydroxytryptamine receptor 2A (Homo sapiens, UniProt P28223); test: Inhibition of 5-HT2A receptor (unknown origin) at 10 uM by PDSP assay relative to control
[7] = molecular target: T4, Alpha-2C adrenergic receptor (Homo sapiens, UniProt P18825); test: Inhibition of adrenergic alpha2C receptor (unknown origin) by PDSP assay
T4 sequence (P18825 whole entry): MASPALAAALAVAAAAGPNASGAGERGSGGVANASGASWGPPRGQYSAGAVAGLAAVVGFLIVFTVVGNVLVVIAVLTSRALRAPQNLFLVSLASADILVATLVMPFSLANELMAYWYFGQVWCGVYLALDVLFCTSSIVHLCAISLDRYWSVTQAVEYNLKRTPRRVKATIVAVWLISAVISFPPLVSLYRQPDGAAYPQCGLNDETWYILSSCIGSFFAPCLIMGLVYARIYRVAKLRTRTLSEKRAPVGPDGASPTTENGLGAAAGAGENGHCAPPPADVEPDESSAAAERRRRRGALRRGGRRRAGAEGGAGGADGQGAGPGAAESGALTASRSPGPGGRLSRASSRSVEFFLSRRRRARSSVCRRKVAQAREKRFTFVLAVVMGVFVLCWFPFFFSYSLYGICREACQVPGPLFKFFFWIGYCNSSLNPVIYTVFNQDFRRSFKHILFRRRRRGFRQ

[8] = molecular target: Histamine H2 receptor (Homo sapiens, UniProt P25021); test: Inhibition of histamine H2 receptor (unknown origin) at 10 uM by PDSP assay relative to control
[9] = molecular target: D(2) dopamine receptor (Homo sapiens, UniProt P14416); test: Inhibition of dopamine D2 receptor (unknown origin) at 10 uM by PDSP assay relative to control
[10] = molecular target: T5, Alpha-2B adrenergic receptor (Homo sapiens) (UniProt P18089); test: Inhibition of adrenergic alpha2B receptor (unknown origin) at 10 uM by PDSP assay relative to control
T5 sequence (whole entry): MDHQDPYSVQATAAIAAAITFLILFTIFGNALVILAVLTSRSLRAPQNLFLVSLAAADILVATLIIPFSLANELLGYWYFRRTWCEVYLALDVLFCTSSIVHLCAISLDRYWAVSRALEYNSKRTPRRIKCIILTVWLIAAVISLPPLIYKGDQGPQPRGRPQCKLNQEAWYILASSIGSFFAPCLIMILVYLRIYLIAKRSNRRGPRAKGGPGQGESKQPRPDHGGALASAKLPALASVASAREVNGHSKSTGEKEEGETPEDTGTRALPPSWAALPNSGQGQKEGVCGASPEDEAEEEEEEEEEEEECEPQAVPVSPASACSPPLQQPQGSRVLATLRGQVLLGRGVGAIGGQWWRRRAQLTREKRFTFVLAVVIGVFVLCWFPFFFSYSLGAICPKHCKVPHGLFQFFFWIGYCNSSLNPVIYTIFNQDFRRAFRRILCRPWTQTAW

[11] = molecular target: Muscarinic acetylcholine receptor M3 (Homo sapiens, UniProt P20309); test: Inhibition of muscarinic M3 receptor (unknown origin) at 10 uM by PDSP assay relative to control
Chain of Muscarinic acetylcholine receptor M3 (P20309 whole entry, looked up): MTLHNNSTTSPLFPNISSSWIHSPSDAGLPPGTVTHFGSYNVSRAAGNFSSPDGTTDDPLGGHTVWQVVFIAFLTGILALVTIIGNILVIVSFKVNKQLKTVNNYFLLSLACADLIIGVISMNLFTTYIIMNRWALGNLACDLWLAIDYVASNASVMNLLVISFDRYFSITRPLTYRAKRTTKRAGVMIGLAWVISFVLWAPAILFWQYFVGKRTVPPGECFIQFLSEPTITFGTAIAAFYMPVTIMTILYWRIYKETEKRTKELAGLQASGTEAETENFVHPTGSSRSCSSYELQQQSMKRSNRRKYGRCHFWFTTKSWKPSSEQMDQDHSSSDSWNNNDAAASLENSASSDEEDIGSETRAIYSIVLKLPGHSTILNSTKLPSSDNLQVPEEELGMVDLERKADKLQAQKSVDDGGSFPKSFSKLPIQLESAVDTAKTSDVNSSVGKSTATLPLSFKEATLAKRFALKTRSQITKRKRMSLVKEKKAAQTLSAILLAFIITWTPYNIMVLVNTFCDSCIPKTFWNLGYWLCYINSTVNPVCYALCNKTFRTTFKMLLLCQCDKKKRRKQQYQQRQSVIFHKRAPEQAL

Chain of D(2) dopamine receptor (P14416 whole entry): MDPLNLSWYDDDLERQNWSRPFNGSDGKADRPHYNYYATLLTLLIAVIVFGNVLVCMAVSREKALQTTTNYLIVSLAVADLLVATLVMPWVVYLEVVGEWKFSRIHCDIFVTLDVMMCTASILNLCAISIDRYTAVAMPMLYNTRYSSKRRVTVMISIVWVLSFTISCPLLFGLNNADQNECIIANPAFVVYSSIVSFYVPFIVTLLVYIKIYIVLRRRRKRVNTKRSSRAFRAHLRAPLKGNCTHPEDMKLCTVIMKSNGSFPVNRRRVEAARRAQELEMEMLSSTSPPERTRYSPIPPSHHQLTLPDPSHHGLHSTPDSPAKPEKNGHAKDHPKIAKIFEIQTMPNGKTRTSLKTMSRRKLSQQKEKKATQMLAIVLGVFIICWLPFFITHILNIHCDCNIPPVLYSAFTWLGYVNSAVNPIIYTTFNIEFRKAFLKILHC
Chain of Histamine H2 receptor (P25021 whole entry): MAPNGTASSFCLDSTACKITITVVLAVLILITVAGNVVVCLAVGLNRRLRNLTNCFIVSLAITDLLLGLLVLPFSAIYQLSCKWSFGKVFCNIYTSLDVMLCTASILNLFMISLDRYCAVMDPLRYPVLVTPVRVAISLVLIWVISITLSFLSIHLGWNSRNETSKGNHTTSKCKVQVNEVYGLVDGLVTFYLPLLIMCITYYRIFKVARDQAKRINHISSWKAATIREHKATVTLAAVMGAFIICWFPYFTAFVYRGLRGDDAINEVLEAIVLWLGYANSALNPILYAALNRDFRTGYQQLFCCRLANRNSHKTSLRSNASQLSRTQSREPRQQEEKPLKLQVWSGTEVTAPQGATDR
Chain of 5-hydroxytryptamine receptor 2A (P28223 whole entry): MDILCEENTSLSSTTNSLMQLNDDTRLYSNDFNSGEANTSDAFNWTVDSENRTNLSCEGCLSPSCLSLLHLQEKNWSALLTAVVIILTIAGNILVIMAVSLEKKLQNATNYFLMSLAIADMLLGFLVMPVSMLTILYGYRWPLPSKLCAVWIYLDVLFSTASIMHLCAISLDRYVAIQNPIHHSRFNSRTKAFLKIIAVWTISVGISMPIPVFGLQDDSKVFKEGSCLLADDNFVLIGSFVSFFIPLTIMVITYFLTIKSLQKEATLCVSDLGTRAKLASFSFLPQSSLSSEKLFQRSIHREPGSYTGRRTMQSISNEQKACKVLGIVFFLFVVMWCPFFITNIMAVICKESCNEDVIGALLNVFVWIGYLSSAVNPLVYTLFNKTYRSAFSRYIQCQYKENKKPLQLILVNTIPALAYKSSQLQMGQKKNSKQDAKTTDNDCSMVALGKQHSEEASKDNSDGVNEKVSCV
Chain of Kappa-type opioid receptor (P41145 whole entry): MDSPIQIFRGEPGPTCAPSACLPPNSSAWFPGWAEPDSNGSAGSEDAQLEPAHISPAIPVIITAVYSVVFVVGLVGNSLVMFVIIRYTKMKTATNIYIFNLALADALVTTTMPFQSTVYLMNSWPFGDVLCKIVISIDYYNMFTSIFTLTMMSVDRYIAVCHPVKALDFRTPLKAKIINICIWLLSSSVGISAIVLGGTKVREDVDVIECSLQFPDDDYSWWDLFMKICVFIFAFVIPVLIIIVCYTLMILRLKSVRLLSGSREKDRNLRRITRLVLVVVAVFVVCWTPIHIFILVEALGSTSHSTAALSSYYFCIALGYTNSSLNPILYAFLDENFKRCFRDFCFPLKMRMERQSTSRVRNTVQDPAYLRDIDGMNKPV
Chain of Histamine H1 receptor (P35367 whole entry): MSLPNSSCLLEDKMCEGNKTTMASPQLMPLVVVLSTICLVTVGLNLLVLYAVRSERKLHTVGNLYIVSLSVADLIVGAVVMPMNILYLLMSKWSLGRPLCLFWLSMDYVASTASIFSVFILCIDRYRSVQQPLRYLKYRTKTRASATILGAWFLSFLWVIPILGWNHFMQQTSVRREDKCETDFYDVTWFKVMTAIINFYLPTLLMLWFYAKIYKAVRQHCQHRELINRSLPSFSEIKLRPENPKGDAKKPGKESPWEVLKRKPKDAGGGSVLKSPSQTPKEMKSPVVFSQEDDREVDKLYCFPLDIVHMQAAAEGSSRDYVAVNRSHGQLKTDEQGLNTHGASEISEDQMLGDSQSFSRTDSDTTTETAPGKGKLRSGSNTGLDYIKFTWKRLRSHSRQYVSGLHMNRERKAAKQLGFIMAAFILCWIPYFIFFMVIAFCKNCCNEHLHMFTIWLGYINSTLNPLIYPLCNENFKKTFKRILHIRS

Structure (SMILES)	inhibition [1] [%]	inhibition [2] [%]	Ki [3] [µM]	inhibition [4] [%]	inhibition [5] [%]	inhibition [6] [%]	Ki [7] [µM]	inhibition [8] [%]	inhibition [9] [%]	inhibition [10] [%]	inhibition [11] [%]
c1ccc(CCN[C@H]2C3C4CC5C6C4CC3C6C52)cc1 (some centres undefined)	< 50	< 50	0.892	< 50	< 50	–	–	–	–	–	–
CN(Cc1ccccc1)[C@H]1C2C3CC4C2C(=O)C2C4C3C21 (some centres undefined)	< 50	< 50	1.27	< 50	–	< 50	–	< 50	< 50	< 50	–
CN(CCc1ccccc1)[C@H]1C2C3CC4C5C3CC2C5C41 (some centres undefined)	< 50	< 50	–	< 50	< 50	–	0.865	–	–	–	< 50
CN(Cc1cccnc1)[C@H]1C2C3CC4C5C3CC2C5C41 (some centres undefined)	< 50	< 50	–	–	< 50	< 50	–	< 50	< 50	< 50	< 50
CN(Cc1ccccc1)[C@H]1C2C3CC4C5C3CC2C5C41 (some centres undefined)	< 50	< 50	–	< 50	< 50	–	–	–	< 50	< 50	< 50
COc1ccc(CN(C)[C@H]2C3C4CC5C6C4CC3C6C52)cc1OC (some centres undefined)	< 50	< 50	6.81	< 50	< 50	< 50	0.993	–	< 50	< 50	< 50
CN(Cc1cccnc1)[C@H]1C2C3CC4C2C(=O)C2C4C3C21 (some centres undefined)	< 50	< 50	6.99	< 50	< 50	< 50	–	< 50	< 50	< 50	< 50
CN(Cc1ccc2c(c1)OCO2)[C@H]1C2C3CC4C5C3CC2C5C41 (some centres undefined)	< 50	< 50	–	< 50	< 50	< 50	–	–	< 50	< 50	< 50
c1ccc(CN[C@H]2C3C4CC5C6C4CC3C6C52)cc1 (some centres undefined)	–	–	–	–	< 50	< 50	–	–	< 50	–	< 50

Second part, the molecule after the results:

inhibition [1] [%]	inhibition [2] [%]	Ki [3] [µM]	inhibition [4] [%]	inhibition [5] [%]	inhibition [6] [%]	Ki [7] [µM]	inhibition [8] [%]	inhibition [9] [%]	inhibition [10] [%]	inhibition [11] [%]	Structure (SMILES)
–	< 50	0.354	–	–	< 50	0.683	–	–	–	–	C1C2C3CC4C2C2C1C3[C@H](NCC13C5C6C7C5C1C7C63)C42 (some centres undefined)
< 50	–	–	< 50	< 50	< 50	–	< 50	< 50	< 50	< 50	CN(CC1CCCCC1)[C@H]1C2C3CC4C5C3CC2C5C41 (some centres undefined)
< 50	< 50	0.619	< 50	–	< 50	2.79	< 50	< 50	< 50	–	CN(CCCc1cccc(F)c1)[C@H]1C2C3CC4C2C(=O)C2C4C3C21 (some centres undefined)
–	< 50	–	< 50	< 50	< 50	–	–	< 50	–	< 50	COc1ccc(CN[C@H]2C3C4CC5C6C4CC3C6C52)cc1OC (some centres undefined)
< 50	< 50	–	< 50	< 50	< 50	–	< 50	< 50	–	< 50	CN(CCc1ccccn1)[C@H]1C2C3CC4C2C(=O)C2C4C3C21 (some centres undefined)
< 50	< 50	0.707	< 50	< 50	< 50	1.51	< 50	< 50	–	< 50	C1CCC(CN[C@H]2C3C4CC5C6C4CC3C6C52)CC1 (some centres undefined)
< 50	–	1.3	< 50	< 50	< 50	–	< 50	–	–	–	c1ccc(CCN[C@H]2C3C4CC5C6C4CC3C6C52)nc1 (some centres undefined)
< 50	< 50	3.59	< 50	< 50	< 50	3.98	–	< 50	< 50	< 50	CN(CCc1ccccc1)[C@H]1C2C3CC4C2C(=O)C2C4C3C21 (some centres undefined)
–	< 50	–	–	< 50	–	2.28	–	< 50	–	< 50	COc1cc(CN[C@H]2C3C4CC5C6C4CC3C6C52)cc(OC)c1OC (some centres undefined)
< 50	< 50	7.38	< 50	< 50	< 50	–	< 50	< 50	< 50	< 50	COc1ccc(CN(C)[C@H]2C3C4CC5C3C(=O)C3C5C4C32)cc1OC (some centres undefined)
< 50	< 50	3.81	–	< 50	< 50	–	< 50	< 50	< 50	< 50	CN(CCc1ccccn1)[C@H]1C2C3CC4C5C3CC2C5C41 (some centres undefined)
–	< 50	6.53	< 50	< 50	< 50	3.08	–	< 50	–	< 50	c1cc2c(cc1CN[C@H]1C3C4CC5C6C4CC3C6C51)OCO2 (some centres undefined)

Reference: ChEMBL document CHEMBL2429832, “N-substituted 8-aminopentacyclo[5.4.0.0(2,6).0(3,10).0(5,9)]undecanes as σ receptor ligands with potential neuroprotective effects” (Bioorg Med Chem, 2013)
